According to patent publication US8691749B2, “Peptide and use thereof” (Ensoltek Co., Ltd., priority 2009, dated 2014):

Experiments:
[1] = system: degenerated disc tissue; assay: Disc regeneration effects by disc tissue staining (H&E) in disc degeneration model; assay type: in vivo, rabbits (New Zealand white rabbits); conditions: 0.5 mM/animal, local intradiscal injection twice
Protocol: 30 rabbits (New Zealand white rabbits; Orient Bio Inc.), weighing 3 to 3.5 kg, were prepared irrespective of sex.
The rabbits were anesthetized by intramuscular injection of 5 mg/kg of xylazine (Rompun, Bayer) and 35 mg/kg of ketamine hydrochloride (Ketalar, Pfizer). Prior to the procedure, lateral plain X-ray using a fluoroscopic apparatus (Model VPX-200; Toshiba Co.) was obtained to establish the pre-injection baseline height of intervertebral disc. The baseline control refers to a standard for measurement of a disc space. After the rabbits were positioned on the laboratory table, L23, L34, L45, and L56 disc levels were confirmed by the machine, and annulus fibrosus was stabbed into the posterolateral side of the disc at L23, L45, and L56 levels, using an 18G needle. After recovery from the anesthesia, the animals were housed in a cage under the following breeding conditions: temperature 20-25° C., humidity 10%-50%, and Light/Dark (L/D) cycle: (light from 08:00 a.m. to 20:00 p.m.). All animals were fed once a day. X-ray photographs were taken 2 and 4 weeks after the initial annular puncture. The X-ray was taken after anesthesia. Based on the results of X-ray, an intervertebral disc height (IVD height) was measured. From the measurement results, disc degeneration degree was quantified by a modification of the method disclosed in Lu et al., Spine. 22:1828-34, 1997.
Thereafter, experiments were carried out for two separate groups, DMSO-administered control group and Example 1 peptide-administered experimental group, and the rabbits were euthanized by injection of ketamine (25 mg/kg) and sodium pentobarbital (1.2 g/kg, Nembutal, Ovation) according to the planned schedule, followed by extraction of the disc for histological and biochemical analysis, respectively.
Disc-degenerated rabbits from Section 2-1 were divided into two groups. Each group was given dimethyl sulfoxide (DMSO) and the peptide of Example 1 (0.5 mM/animal) by local intradiscal injection twice. The administration point for each group was 4 weeks after the induction of disc degeneration and 2 weeks thereafter. After the second administration, the animals were raised for 2, 4, and 8 weeks, respectively. At Weeks 4, 6, and 10 after the first administration of each of the Example 1 peptide and DMSO, the corresponding respective disc tissues were extracted and fixed in formalin. The fixed disc tissues were embedded in paraffin, and serial sections having a thickness of […] along the sagittal plane were prepared. Of these sections, two mid-sagittal sections were stained with hematoxylin and eosin (H&E). For the comparison with the normal disc tissue, the disc was extracted, treated and stained from the rabbits with no induction of disc degeneration according to the same method described above. […]

[2] = system: aggrecan gene; assay: Aggrecan gene expression in disc tissues by real-time PCR in disc degeneration model; assay type: in vivo, rabbits (New Zealand white rabbits); conditions: Week 4 after first administration; 0.5 mM/animal intradiscal at Weeks 0 and 2
Protocol: Real-time PCR was carried out to examine a gene expression level of aggrecan, which is a representative extracellular matrix component in disc tissues.
In the same manner as in Example 2-1, animals were prepared and divided into two groups, to each of which DMSO and the peptide of Example 1 (0.5 mM/animal) were administered by local intradiscal injection. The administration point for each group was 4 weeks after the induction of disc degeneration and 2 weeks thereafter. After the second administration, the animals were raised for 2, 4, and 8 weeks, respectively. […]
The quantity of mRNA of GAPDH and aggrecan was examined by a Prism 7900HT (ABI) using PowerSYBR Green PCR Master Mix (Applied Biosystems Inc.). […] GAPDH was selected as a reference gene, and a CT value difference (ΔCT) between the reference gene and the aggrecan gene was calculated. In addition, a CT value difference (ΔΔCT) between the normal disc and the Example 1 peptide-administered disc (or DMSO-administered disc) was calculated. Then, 2^(−ΔΔCT) was calculated and expressed in terms of percentage relative to the normal disc value.

[3] = system: TGF-beta1 signaling; assay: TGF-beta1 signaling inhibition: phosphorylated Smad2 Western blot in HepG2 cells; assay type: cell-based
Protocol: Inhibition of TGF-beta1 signaling by the peptide of Example 1 was confirmed in accordance with the following experimental method.
Treatment of HepG2 cells with TGF-beta1 is known to result in apoptosis, during which Smad2 is first phosphorylated (Park T J. et al., Mol. Carcinog. 47:784-796, 2008; and Gressner A M. et al., J Hepatol. 26:1079-1092, 1997). Using these properties, the experiment was carried out as follows. 1×10^6 of HepG2 cells (ATCC; American Type Culture Collection) were seeded in a 60 mm dish, stabilized overnight, and then depleted of nutrients by serum-free media (SFM) for 24 hours. Prior to treatment of the cells with the peptide of Example 1, 5 ng/mL of TGF-beta1 (PromoKine, Germany) and the above peptide (1, 5, and 25 μM) were subjected to pre-incubation at 37° C. for 1 hour. Further, DMSO (2 μl/mL) was also pre-incubated with TGF-beta1 (5 ng/mL) at 37° C. for 1 hour. Then, the cells were treated with the pre-incubated solutions for 30 minutes, followed by extraction of proteins. In addition, the cells were previously treated only with […] of SB431542 (TOCRIS, USA), an inhibitor of the TGF-beta receptor, followed by incubation for 1 hour, and then treated with TGF-beta1 (5 ng/mL) for 30 minutes. Then, the cells were homogenized on ice in Radioimmunoprecipitation (RIPA) Lysis Buffer (Millipore) {50 mM Tris-HCl (pH 7.4), 150 mM NaCl, 0.25% deoxycholic acid, 1% NP-40, 1 mM ethylenediaminetetraacetic acid (EDTA), 1 mM phenylmethylsulfonyl fluoride (PMSF), 40 mM NaF, 1 mM Na3VO4, 1 mM dithiothreitol (DTT)}. […]
FIG. 3 illustrates the Western blot results (Lane 1: non-treated HepG2 cells, Lane 2: TGF-beta1-treated cells, Lane 3: TGF-beta1/SB431542-treated cells, Lanes 4, 5 and 6: cells treated with 1, 5, and 25 μM of peptide/TGF-beta1, respectively, and Lane 7: TGF-beta1/DMSO-treated cells). […] The bottom of FIG. 3 illustrates the Coomassie Blue staining results of the membrane used in Western blot, showing that the quantity of the protein is the same in all the lanes.

| Molecule | distinction between nucleus pulposus and annulus fibrosus ([1]; Week 10) | extracellular matrix components in disc tissue ([1]; Week 10) | size of disc as compared to the DMSO-administered disc tissue ([1]; Week 10) | staining of cell nuclei in the nucleus pulposus region ([1]; Week 10, x400) | aggrecan gene expression as compared to the DMSO-administered disc tissue [2] | phosphorylation degree of Smad2 ([3]; peptide 1, 5 and 25 μM pre-incubated with TGF-beta1 5 ng/mL for 1 hour, cells treated 30 minutes) | extent of TGF-beta1 signaling inhibition ([3]; peptide 1, 5 and 25 μM, compared with SB431542) | phosphorylation of Smad2 ([3]; pre-treated with 1004 of SB431542 for 1 hour, then TGF-beta1 5 ng/mL for 30 minutes) |
| --- | --- | --- | --- | --- | --- | --- | --- | --- |
| LQVVYLH [Example 1] | discernible between the nucleus pulposus and the annulus fibrosus | abundance of extracellular matrix components | increased size of disc | vivid staining of the cell nuclei | increase in the aggrecan gene expression | decreased in a dose-dependent manner | does not completely inhibit TGF-beta1 signaling | – |
| NC(=O)c1ccc(-c2nc(-c3ccc4c(c3)OCO4)c(-c3ccccn3)[nH]2)cc1 [SB431542, reference compound] | – | – | – | – | – | – | – | complete inhibition of phosphorylation |
